# Patent publication US20150064221A1, “COMPOUNDS HAVING IMMUNOMUDULATOR ACTIVITY” (priority 2012, published 2015)
# “Also recorded” adds a separate entry of the source.
# Assays:
# [1] = test system: spontaneous diabetes; test: Spontaneous diabetes in NOD mice; format: in vivo; conditions: i.p. 20 mg/kg 6 times a week, week 12 to 25
# Experimental: (§1) (A) Euglycaemic female 12 week old NOD mice were treated intraperitoneally with either 20 mg/kg bw VGX-1027 or its vehicle six times a week from the 12th until the 25th week of age. An additional control group of mice was left untreated. Each group consisted of 16 mice. The data are representative of two independent experiments that were merged because of interstudies variability lower than 10%. Statistical analysis was performed by Logrank (Mantel-Cox). (B) Plasma glucose levels in control CBA/H mice receiving STZ (40 mg/kg/day, for 5 consecutive days) in conjunction with 12 daily intreperitoneum injections of vehicle (STZ), or in mice treated with STZ and VGX-1027 given as a continuous 12-day treatment. 100 mg/kg bw of VGX-1027, administered orally from day −1 to day +10. Results from a representative experiment are presented as mean±SD for seven to eight mice per group. *p<0.05 refers to treatment with MLD-STZ.
# [2] = test system: LPS-induced lethality; test: LPS-induced lethality; format: in vivo, mice
# Experimental: VGX-1027 was administered intraperitoneally (A) or orally (p.o.) (B), and its effect on cumulative rate of lethality induced by LPS was evaluated. Data from 2 to 3 independent experiments are shown. Statistical analysis was performed by logrank (Mantel-Cox). *p<0.05 was taken as significant. Each group is compared to the vehicle-treated group.
# As expected, most of the control mice either untreated or that received the vehicle of VGX-1027 succumbed to LPS-challenge within 3 days. […] In contrast, the treatment with VGX-1027 given either orally or intraperitoneally administration protect the mice from the lethal effects of LPS in a dose-dependent fashion. When given orally, VGX-1027 was effective at the dose of […] and […] both at 1.5 and 3 mg/mouse.
# Lipopolysaccharide (LPS) is the most studied of all TLR agonists because it induces both local and systemic inflammation, and responses to LPS mimic many of the features of tissue injury observed during infections with Gram-negative bacteria. Injection of LPS into mice triggers production of inflammatory cytokines and symptoms that are indistinguishable from those of septic shock.
# [3] = test system: MLD-STZ-induced diabetes; test: Streptozotocin (MLD-STZ) induced diabetes; format: in vivo, CBA/H mice
# Experimental: as §1
# Both intraperitoneal and oral treatment with VGX-1027 suppressed clinical development of diabetes. Clinical development of diabetes was attempted to be induced in CBA/H mice by multiple low doses of streptozotocin. CBA/H mice developed sustained hyperglycemia over a 2-week period following MLD-STZ injections. As expected, CBA/H control mice treated with the vehicle of VGX-1027 either orally or intraperitoneally developed diabetes with sustained hyperglycemia developed over a 2-week period following MLD-STZ injections.
# The effect of VGX-1027 with STZ-induced diabetes was also evaluated. STZ is a DNA alkylating agent with particular toxicity to pancreatic β cells. VGX-1027 was administered orally for 12 days, and STZ was administered into mice for 5 consecutive days starting a day after VGX-1027 treatment.
structure (smiles),measurement,setting,value
"O=C(O)CC1CC(c2ccccc2)=NO1 (centres unmarked) [VGX-1027, 3-phenyl-4,5-dihydro-5-isoxazoleacetic acid]",mice developing TID,[1]; by 25 weeks,31.3%
same,tolerability of prolonged treatment,[1],well tolerated
same,protection from LPS lethality,"[2]; i.p., between 0.25 and 0.5 mg/mouse",dose-dependent protection
same,survival,"[2]; lethal dose of LPS (1 mg/mice), i.p. or oral",increased the survival
same,protection from LPS lethality,"[2]; oral, 2.5 mg/mouse",effective
same,protection from LPS lethality,"[2]; oral, 1.5 and 3 mg/mouse",dosed out
same,LPS-induced lethality,"[2]; prophylactic regime (−24 and −1 hour prior to LPS), oral and i.p.",significantly reducing
same,LPS-induced lethality,[2]; therapeutic administration,powerfully counteracts
same,diabetogenic effect of MLD-STZ,[3]; intraperitoneally,significantly reduced
same,development of hyperglycemia,"[3]; orally (100 mg/kg, 12 days), 100 mg/kg",did not develop hyperglycemia; also recorded: significantly reducing
same,"infiltration of immune cells, atrophy and loss of islet margins in pancreas","[3]; orally, 12 days",prevented
